Test results: US5130320A, “Glycosidase inhibiting 1,3-dideoxy-3-fluoronojirimycin” (Monsanto Company, priority 1991, dated 1992)

Tests used:
Type in all cases: biochemical
ALPHA MANNOSIDASE [1] = molecular target: T1, ALPHA MANNOSIDASE (Canavalia ensiformis, UniProt C0HJB3); assay: Alpha mannosidase inhibition, pH 7.4; details: for inhibition at 1000 µM: @ 1 mM; for inhibition at 5000 µM: @ 5 mM
T1 sequence (C0HJB3 1-981): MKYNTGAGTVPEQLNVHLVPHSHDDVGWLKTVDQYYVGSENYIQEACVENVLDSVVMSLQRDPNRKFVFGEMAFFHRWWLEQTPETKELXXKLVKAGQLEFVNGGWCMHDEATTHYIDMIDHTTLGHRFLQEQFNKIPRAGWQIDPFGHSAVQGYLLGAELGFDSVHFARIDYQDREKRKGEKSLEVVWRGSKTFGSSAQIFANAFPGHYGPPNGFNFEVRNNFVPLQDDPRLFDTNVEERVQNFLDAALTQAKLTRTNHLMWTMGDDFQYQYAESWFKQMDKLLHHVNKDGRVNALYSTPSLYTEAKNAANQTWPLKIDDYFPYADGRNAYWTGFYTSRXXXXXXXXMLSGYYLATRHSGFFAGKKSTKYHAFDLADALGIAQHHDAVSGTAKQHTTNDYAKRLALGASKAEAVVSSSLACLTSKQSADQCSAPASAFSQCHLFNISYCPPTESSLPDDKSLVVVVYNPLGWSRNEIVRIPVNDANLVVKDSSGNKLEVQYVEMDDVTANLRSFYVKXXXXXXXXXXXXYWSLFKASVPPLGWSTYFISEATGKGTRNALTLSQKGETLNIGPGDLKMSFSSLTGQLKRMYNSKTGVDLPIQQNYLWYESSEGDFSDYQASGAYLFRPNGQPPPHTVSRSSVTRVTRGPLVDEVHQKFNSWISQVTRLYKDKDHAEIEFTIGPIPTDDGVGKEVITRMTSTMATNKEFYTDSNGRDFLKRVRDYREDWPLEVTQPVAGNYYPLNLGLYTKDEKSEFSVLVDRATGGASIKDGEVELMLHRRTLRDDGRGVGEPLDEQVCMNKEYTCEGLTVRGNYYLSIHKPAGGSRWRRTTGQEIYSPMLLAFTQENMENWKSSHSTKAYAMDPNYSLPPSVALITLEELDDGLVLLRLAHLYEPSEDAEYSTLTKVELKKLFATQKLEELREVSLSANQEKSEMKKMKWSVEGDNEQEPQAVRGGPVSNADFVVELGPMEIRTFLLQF

ALPHA MANNOSIDASE [2] = molecular target: T1, ALPHA MANNOSIDASE; assay: Alpha mannosidase inhibition, pH 4.5; details: for inhibition at 1000 µM: @ 1 mM; for inhibition at 5000 µM: @ 5 mM
yeast α-glucosidase = molecular target: T2, yeast α-glucosidase (Saccharomyces cerevisiae, UniProt P53341); assay: α-Glucosidase inhibition assay, pH 7.4; details: read-out: ALPHA GLUCOSIDASE inhibition; for inhibition at 1000 µM: @ 1 mM; for inhibition at 5000 µM: @ 5 mM
T2 construct: purchased Sigma
Protocol: (§1) The glycosidase inhibition activity is determined by modifying an assay procedure described in Evans et al, Phytochemistry, 22, pp. 768-770 (1983). More particularly, yeast α-glucosidase and almond β-glucosidase activities were measured by the Evans et al method which was modified by assaying activities at pH 7.4 in N-2-hydroxyethylpiperazine-N-2-ethane sulfonic acid (HEPES) buffer, measuring in 96 well microtiter plates, and including 10% DMSO in control and test samples.
(§2) The release of p-nitrophenol from the substrate p-nitrophenylglycoside was measured spectrophotometrically in the presence and absence of test compound. Each assay included a known inhibitor of the enzyme as a standard. IC50 values were determined for compounds which inhibited the enzymes more than 50% at a 1 millimolar concentration.
To 100 ul 50 mM HEPES buffer, pH 7.4, in a microtiter plate, 20 ul test compound in DMSO (DMSO alone in control)and 40 ul (0.013 units) yeast α-glucosidase (Sigma) in HEPES buffer were added and pre-incubated at room temperature 15 minutes. 40 ul 1.25 mM p-nitrophenyl-α-D-gl-ucopyranoside (Sigma) in HEPES buffer, as substrate was added and the absorbance change at 405 nm was monitored in a Biotek EIA Autoreader. Absorption change was measured at 15 to 25 minutes (reaction was linear for at least 30 minutes). Each sample was tested in triplicate. IC50 values were determined from the linear portion of the log concentration vs percent inhibition curve obtained from a minimum of 3 points. Deoxynojirimycin was used as standard inhibitor.

almond β-glucosidase [3] = assay: β-Glucosidase inhibition assay, pH 4.8
Protocol: as §1, §2
To 100 ul 50 mM sodium citrate buffer, pH 4.8, in a microtiter plate, 20 ul test compound in DMSO (DMSO alone in control) and 20 ul (0.017 units) β-glucosidase (Sigma) in citrate buffer were added and pre-incubated at room temperature 15 minutes. 20 ul 2.50 mM p-nitrophenyl-β-D-glucopyranside in citrate buffer was added as substrate and incubated at room temperature minutes (reaction is linear for at least 30 minutes). 50 ul 0.4 M NaOH was added and the absorption change at 405 nm was determined utilizing a Biotek EIA Autoreader. Each sample was tested in triplicate. IC50 values were determined from the linear portion of the log concentration vs percent inhibition curve obtained from a minimum of 3 points. Castanospermine was used as standard inhibitor.

almond β-glucosidase [4] = assay: β-Glucosidase inhibition assay, pH 7.4
Protocol: as §1, §2
To 100 ul 50 mM HEPES buffer, pH 7.4, in a microtiter plate, 20 ul test compound in DMSO (DMSO alone in control) and 40 ul (0.136 units) β-glucosidase (Sigma) in HEPES buffer were added and pre-incubated at room temperature 15 minutes. 40 ul 1.25 mM p-nitrophenyl-β-D-glucopyranoside in HEPES buffer was added as substrate and the absorbance change at 405 nm was monitored utilizing a Biotek EIA Autoreader. Absorption change was measured at 15 to 25 minutes (reaction is linear for at least 30 minutes). Each sample was tested in triplicate. IC50 values were determined from the linear portion of the log concentration vs percent inhibition curve obtained from a minimum of 3 points. Castanospermine was used as standard inhibitor.

T2 sequence (P53341 whole entry): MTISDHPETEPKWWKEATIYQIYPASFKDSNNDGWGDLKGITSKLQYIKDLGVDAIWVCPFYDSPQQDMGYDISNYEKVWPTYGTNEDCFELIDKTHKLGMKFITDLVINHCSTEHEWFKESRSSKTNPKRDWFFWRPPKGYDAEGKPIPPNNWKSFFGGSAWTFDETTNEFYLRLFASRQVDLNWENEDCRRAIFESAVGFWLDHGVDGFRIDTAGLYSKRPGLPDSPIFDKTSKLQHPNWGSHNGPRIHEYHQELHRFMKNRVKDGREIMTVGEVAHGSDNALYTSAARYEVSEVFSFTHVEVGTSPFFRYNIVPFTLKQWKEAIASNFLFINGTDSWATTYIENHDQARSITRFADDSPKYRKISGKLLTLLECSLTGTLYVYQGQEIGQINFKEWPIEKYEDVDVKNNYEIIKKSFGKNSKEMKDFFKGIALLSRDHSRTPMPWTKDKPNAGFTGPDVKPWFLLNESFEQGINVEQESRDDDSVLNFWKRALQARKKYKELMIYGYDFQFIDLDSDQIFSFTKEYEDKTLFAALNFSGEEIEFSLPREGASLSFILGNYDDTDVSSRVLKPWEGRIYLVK

SMILES | inhibition at 1000 µM (ALPHA MANNOSIDASE [1]) [%] | inhibition at 5000 µM (ALPHA MANNOSIDASE [1]) [%] | inhibition at 1000 µM (ALPHA MANNOSIDASE [2]) [%] | inhibition at 5000 µM (ALPHA MANNOSIDASE [2]) [%] | inhibition at 1000 µM (yeast α-glucosidase) [%] | inhibition at 5000 µM (yeast α-glucosidase) [%] | BETA GLUCOSIDASE-pH 4.8 inhibition (almond β-glucosidase [3]; @ 1 mM) [%] | BETA GLUCOSIDASE-pH 4.8 inhibition (almond β-glucosidase [3]; @ 5 mM) [%] | BETA GLUCOSIDASE-pH 7.4 inhibition (almond β-glucosidase [4]; @ 1 mM) [%] | BETA GLUCOSIDASE-pH 7.4 inhibition (almond β-glucosidase [4]; @ 5 mM) [%]
OC[C@H]1NC[C@H](O)[C@@H](F)[C@@H]1O [Compound 1, 1,3-dideoxy-3-fluoronojirimycin] | 10 | 30 | 11 | 19 | 26 | 63 | 4 | 10 | 3 | 24
CCCCN1C[C@H](O)[C@@H](F)[C@H](O)[C@H]1CO [Compound 2, N-butyl-1,3-dideoxy-3-fluoronojirimycin] | 7 | 11 | 6 | 5 | 11 | 18 | 8 | -10 | 0 | 2
